This note sets out measurements from patent publication US20240067632A1, “WEE1 Degrading Compounds and Uses Thereof” (Bristol-Myers Squibb Company, priority 2022, published 2024).

The test system of one assay is MKN45 cells. Nature of the assay: MKN45 cell proliferation assay (Cell-Titer-Glo, 120 h). The settings on record: for EC50: Homo sapiens, MKN-45, 120 h, Cell-Titer-Glo, read-out: MKN45 Cell Prolif. 120 hr (EC50); for MKN45 Cell Prolif. 120 hr (Ymin-Obs): minimal percent of DMSO control observed in the concentrations tested. The class given is cell-based. As for the experimental part: MKN45 cells were obtained from Celgene internal cell banks and cultured in RPMI complete media (RPMI-1640, 1× Penicillin/Streptomycin, 1× glutamine, 1× Sodium Pyruvate, Non-essential Amino Acids, 10% Fetal Bovine serum, all component from Thermo-Fisher). Compounds were dispensed into 384-well plates using an HP DE300 compound printer in triplicate with 8 compounds on each plate. For each compound, a 10-point dose response was printed at half-log dilutions starting at either 1 uM or 10 uM. The DMSO concentration was kept constant for a final assay concentration of 0.1% per well assuming 50 ul final media volume. Compound plates were sealed and frozen at −20 C until use.
For each assay batch, compound plates were thawed and allowed to reach room temperature, and cells were seeded at 400 cells per well in 50 ul complete RPMI media. After 120 hours of incubation at 37 C and 5% CO2, cells were lysed by addition of 25 μL of Cell-Titer-Glo Reagent (Promega Corporation, Madison, WI), as per manufacturer's instructions, protected from light, shaken for 45 minutes, and total luminescence read by a Perkin Elmer Envision plate reader. Total luminescence signal is linearly correlated with cell number remaining in the well.
Luminescence data was processed per plate by subtracting reagent-only “blank” well luminescence from all measured values and calculating a percent of DMSO control value for each treatment well. Then, to determine the half-maximal effective concentration (EC50) values for cell growth inhibition, a four parameter logistic model was fit to the data for each DMSO-normalized compound: Sigmoidal Dose-Response Model: (FIT=(A+((B−A)/1+((C/x)^D)))) where C is the inflection point (EC50), D is the Hill slope, and A and B are the low and high limits of the fit respectively. The lower limit of the fit (value A) is referred to as Ymin-calculated. The minimal percent of DMSO control that is observed in the concentrations tested for each compound is labeled as “Ymin-obs”, and was recorded and reported in the tables. Sigmoidal fit curves were processed and evaluated using Activity Base (IDBS, Alameda, CA).

In a further assay the target is T1, WEE1 (Homo sapiens, UniProt P30291+Q96SW2).
T1 construct: C-terminal ePL-tagged (DiscoverX, Fremont, CA) full-length WEE1 expression construct; expressed in transfected cells; host or cells: LentiX-HEK293T (Invitrogen), lentiviral transduction; co-expressing GSPT1-GN (G576N, lacking the first 158 amino acids)
The assay is described as follows: WEE1-ePL degradation assay (LentiX-WEE1-ePL-GSPT1-ND cells, InCELL Hunter luminescence, 4 h). The class given is cell-based. The settings on record: 293T-LentiX WEE1-ePL cells; for DC50: read-out: 293T-LentiX WEE1-ePL Degradation 4 hr (EC50). On the procedure: To generate LentiX-WEE1-ePL-GSPT1-ND cells for the WEE1 degradation assay, LentiX-HEK293T (Invitrogen) were transduced by lentivirus with a C-terminal ePL-tagged (DiscoverX, Fremont, CA) full-length WEE1 expression construct. […] Cells were selected and maintained in complete DMEM media (DMEM, 10% Heat Inactivated FBS, 400 μg/mL Geneticin, and 1 μg/mL puromycin at 37 C and 5% CO2). Cells were passaged every 3-4 days by reseeding 1×10^6 cells in a T150 flask.
Cells were dispensed into 384-well white plates (Corning #3570, NY) that were pre-spotted with compounds using an acoustic dispenser (Echo acoustic transfer system, Beckman Coulter Life Sciences, Carlsbad, CA) as a 10-point dose-response curve with a 3-fold dilution starting at either 1 uM or 10 uM and including a DMSO control. Twenty-five microliters of media containing 2500 cells for LentiX-oeWEE1-ePL was dispensed per well. Assay plates were incubated at 37° C. with 5% CO2 for four hours (WEE1) After incubation, 25 μL of the InCELL Hunter™ Detection Reagent Working Solution (DiscoverX, Fremont, CA) was added to each well and incubated at room temperature for 30 minutes protected from light. After 30 minutes, luminescence was read on a PHERAstar luminometer (Cary, NC).
To determine the half-maximal effective concentration (EC50) values for WEE1-ePL degradation, a four parameter logistic model was used: (Sigmoidal Dose-Response Model) (FIT=(A+((B−A)/1+((C/x)^D)))) where C is the inflection point (EC50), D is the Hill slope, and A and B are the low and high limits of the fit respectively). The lower limit of the fit (value A) is referred to as Ymin. […] The maximum limit constraint, Ymax, is similarly derived using DMSO control. The curves were processed and evaluated using Activity Base (IDBS, Alameda, CA).

[1] abbreviates: lower limit of the fit (0 = luciferase inhibitor, Ymax = DMSO control).
[2] abbreviates: lower limit of the fit (Ymin=0 luciferase inhibitor, Ymax DMSO control).

The EC50 is the concentration that produces a half-maximal response. As for `COC[C@@H]1CCC[C@H]1c1ccc2cc(CN3CC[C@H](Oc4ccc5c(c4)CN(C4CCC(=O)NC4=O)C5=O)C3)ccc2n1` (stereo partly drawn) [3-(5-{[(3S)-1-({2-[(1R,2R)-2-(methoxymethyl)cyclopentyl]quinolin-6-yl}methyl)pyrrolidin-3-yl]oxy}-1-oxo-2,3-dihydro-1H-isoindol-2-yl)piperidine-2,6-dione], in the assay with MKN45 cells, the EC50 turned out to be 0.0166 µM and the “MKN45 Cell Prolif. 120 hr (Ymin-Obs)” value stood at 12.33.

As to `COC[C@H]1CCC[C@H]1c1ccc2cc(CN3CC[C@H](Oc4ccc5c(c4)CN(C4CCC(=O)NC4=O)C5=O)C3)ccc2n1` (stereo partly drawn) [3-(5-{[(3S)-1-({2-[(1R,2S)-2-(methoxymethyl)cyclopentyl]quinolin-6-yl}methyl)pyrrolidin-3-yl]oxy}-1-oxo-2,3-dihydro-1H-isoindol-2-yl)piperidine-2,6-dione], in the assay with MKN45 cells, the concentration for a half-maximal effect (EC50) came to 0.0123 µM and the “MKN45 Cell Prolif. 120 hr (Ymin-Obs)” value is 15.33. Consider `COc1nc2ccccc2cc1CN1CC[C@H](Oc2ccc3c(c2)CN(C2CCC(=O)NC2=O)C3=O)C1` (stereo partly drawn) [3-(5-{[(3S)-1-[(2-methoxyquinolin-3-yl)methyl]pyrrolidin-3-yl]oxy}-1-oxo-2,3-dihydro-1H-isoindol-2-yl)piperidine-2,6-dione], for which, on WEE1 (setting [1]), the “293T-LentiX WEE1-ePL Degradation 4 hr (Ymin)” value is 45.09. Besides, on WEE1, the DC50 came out at 0.0183 µM. For the compound `NCc1ccccc1COc1ccccc1CN1CC[C@H](Oc2ccc3c(c2)CN(C2CCC(=O)NC2=O)C3=O)C1` (stereo partly drawn) [3-(5-{[(3S)-1-[(2-{[2-(aminomethyl)phenyl]methoxy}phenyl)methyl]pyrrolidin-3-yl]oxy}-1-oxo-2,3-dihydro-1H-isoindol-2-yl)piperidine-2,6-dione], the “293T-LentiX WEE1-ePL Degradation 4 hr (Ymin)” value on WEE1 (setting [1]) is 89.91. Still for that read-out and setting: with `NCc1cccc(COc2ccccc2CN2CC[C@H](Oc3ccc4c(c3)CN(C3CCC(=O)NC3=O)C4=O)C2)c1` (stereo partly drawn) [3-(5-{[(3S)-1-[(2-{[3-(aminomethyl)phenyl]methoxy}phenyl)methyl]pyrrolidin-3-yl]oxy}-1-oxo-2,3-dihydro-1H-isoindol-2-yl)piperidine-2,6-dione] the figure was 87.63; with `NCc1ccc(COc2ccccc2CN2CC[C@H](Oc3ccc4c(c3)CN(C3CCC(=O)NC3=O)C4=O)C2)cc1` (stereo partly drawn) [3-(5-{[(3S)-1-[(2-{[4-(aminomethyl)phenyl]methoxy}phenyl)methyl]pyrrolidin-3-yl]oxy}-1-oxo-2,3-dihydro-1H-isoindol-2-yl)piperidine-2,6-dione], 88.71. Turning to `NCc1ccccc1COc1cccc(CN2CC[C@H](Oc3ccc4c(c3)CN(C3CCC(=O)NC3=O)C4=O)C2)c1` (stereo partly drawn) [3-(5-{[(3S)-1-[(3-{[2-(aminomethyl)phenyl]methoxy}phenyl)methyl]pyrrolidin-3-yl]oxy}-1-oxo-2,3-dihydro-1H-isoindol-2-yl)piperidine-2,6-dione], the “293T-LentiX WEE1-ePL Degradation 4 hr (Ymin)” value at WEE1 (setting [1]) turned out to be 74.31.

On to `NCc1cccc(COc2cccc(CN3CC[C@H](Oc4ccc5c(c4)CN(C4CCC(=O)NC4=O)C5=O)C3)c2)c1` (stereo partly drawn) [3-(5-{[(3S)-1-[(3-{[3-(aminomethyl)phenyl]methoxy}phenyl)methyl]pyrrolidin-3-yl]oxy}-1-oxo-2,3-dihydro-1H-isoindol-2-yl)piperidine-2,6-dione], for which the “293T-LentiX WEE1-ePL Degradation 4 hr (Ymin)” value on WEE1 (setting [1]) was determined as 81.05. In the case of `NCc1ccc(COc2cccc(CN3CC[C@H](Oc4ccc5c(c4)CN(C4CCC(=O)NC4=O)C5=O)C3)c2)cc1` (stereo partly drawn) [3-(5-{[(3S)-1-[(3-{[4-(aminomethyl)phenyl]methoxy}phenyl)methyl]pyrrolidin-3-yl]oxy}-1-oxo-2,3-dihydro-1H-isoindol-2-yl)piperidine-2,6-dione], at WEE1 (setting [1]), the “293T-LentiX WEE1-ePL Degradation 4 hr (Ymin)” value turned out to be 87. `O=C1CCC(N2Cc3cc(O[C@H]4CCN(Cc5ccc6nc(C7CCOCC7)ccc6c5)C4=O)ccc3C2=O)C(=O)N1` (stereo partly drawn) [3-(5-{[(3S)-1-{[2-(oxan-4-yl)quinolin-6-yl]methyl}-2-oxopyrrolidin-3-yl]oxy}-1-oxo-2,3-dihydro-1H-isoindol-2-yl)piperidine-2,6-dione]: the “293T-LentiX WEE1-ePL Degradation 4 hr (Ymin)” value at WEE1 (setting [2]) was found to be 80.98. For the compound `O=C1CCC(N2Cc3cc(O[C@H]4CCN(Cc5cccc(OC(F)F)c5)C4)ccc3C2=O)C(=O)N1` (stereo partly drawn) [3-(5-{[(3S)-1-{[3-(difluoromethoxy)phenyl]methyl}pyrrolidin-3-yl]oxy}-1-oxo-2,3-dihydro-1H-isoindol-2-yl)piperidine-2,6-dione], the “293T-LentiX WEE1-ePL Degradation 4 hr (Ymin)” value on WEE1 (setting [1]) is on record as 75.96. For the same compound, at WEE1, the DC50 is 0.196 µM.

Take `O=C1CCC(N2Cc3ccc(O[C@H]4CCN(Cc5ccc6cnccc6c5)C4)cc3C2=O)C(=O)N1` (stereo partly drawn) [3-(6-{[(3S)-1-[(isoquinolin-6-yl)methyl]pyrrolidin-3-yl]oxy}-1-oxo-2,3-dihydro-1H-isoindol-2-yl)piperidine-2,6-dione]: the “293T-LentiX WEE1-ePL Degradation 4 hr (Ymin)” value on WEE1 (setting [1]) was determined as 80.095. As to `O=C1CC[C@H](N2Cc3cc(O[C@@H]4CN(Cc5ccc6nc(N7CCOCC7)ncc6c5)CC4(F)F)ccc3C2=O)C(=O)N1` [(3S)-3-(5-{[(3R)-4,4-difluoro-1-{[2-(morpholin-4-yl)quinazolin-6-yl]methyl}pyrrolidin-3-yl]oxy}-1-oxo-2,3-dihydro-1H-isoindol-2-yl)piperidine-2,6-dione], in the assay with MKN45 cells, the EC50 was determined as 0.0178 µM and the “MKN45 Cell Prolif. 120 hr (Ymin-Obs)” value is on record as 10.03. `O=C1CC[C@H](N2Cc3cc(O[C@H]4CCN(Cc5ccc6nc(C7CCOCC7)ccc6c5Cl)C4)ccc3C2=O)C(=O)N1` [(3S)-3-(5-{[(3S)-1-{[5-chloro-2-(oxan-4-yl)quinolin-6-yl]methyl}pyrrolidin-3-yl]oxy}-1-oxo-2,3-dihydro-1H-isoindol-2-yl)piperidine-2,6-dione]: the “293T-LentiX WEE1-ePL Degradation 4 hr (Ymin)” value on WEE1 (setting [2]) is 28.82. In addition, the DC50 at WEE1 stood at 0.0028 µM. In the same order, the values of `O=C1CC[C@H](N2Cc3cc(O[C@H]4CCN(Cc5ccc6nc(N7CCOCC7)ncc6c5F)C4)ccc3C2=O)C(=O)N1` [(3S)-3-(5-{[(3S)-1-{[5-fluoro-2-(morpholin-4-yl)quinazolin-6-yl]methyl}pyrrolidin-3-yl]oxy}-1-oxo-2,3-dihydro-1H-isoindol-2-yl)piperidine-2,6-dione] are 32.24 and 0.00327 µM. Consider `O=C1CC[C@H](N2Cc3cc(O[C@H]4CCN(Cc5cc6ccc(C7CCOCC7)nc6cc5F)C4)ccc3C2=O)C(=O)N1` [(3S)-3-(5-{[(3S)-1-{[7-fluoro-2-(oxan-4-yl)quinolin-6-yl]methyl}pyrrolidin-3-yl]oxy}-1-oxo-2,3-dihydro-1H-isoindol-2-yl)piperidine-2,6-dione], for which the “293T-LentiX WEE1-ePL Degradation 4 hr (Ymin)” value on WEE1 (setting [2]) is on record as 29.77. Besides, the DC50 at WEE1 stood at 0.00582 µM. The like results for `C[C@H]1c2cc(O[C@H]3CCN(Cc4ccc5nc(N6CCOCC6)ncc5c4)C3)ccc2C(=O)N1[C@H]1CCC(=O)NC1=O` [(3S)-3-[(3S)-3-methyl-5-{[(3S)-1-{[2-(morpholin-4-yl)quinazolin-6-yl]methyl}pyrrolidin-3-yl]oxy}-1-oxo-2,3-dihydro-1H-isoindol-2-yl]piperidine-2,6-dione] were, in that order, 37.95 and 1.18 µM.
